{
  "source": "patent US20220018855A1",
  "about": "“RGMa Fragment Based Diagnostic Assay” (ABBVIE DEUTSCHLAND GMBH & CO. KG, priority 2014, published 2022)",
  "key": {"MS patients": {"system": "MS patients", "settings": "cited from earlier work"}, "[1]": {"system": "progressive multiple sclerosis patients", "assay": "Side effects during TCA therapy", "assay_type": "in vivo, human", "settings": "all participants (25 MS patients)", "method": "(§1) Design. TCA application was followed by a mandatory stay in bed for at least six hours in order to support and ease the diffusion of TCA in the CSF and the spinal cord. Lumbar puncture was performed with an atraumatic Sprotte needle. The preexisting immune system modulating drug therapy remained stable. Spasticity reducing therapy was not changed. Expanded Disability Status Score (EDSS) ratings, maximum walking distance, and walking speed assessments were performed at baseline and on each day after a 40 mg Triamcinolone acetonide (TCA) administration, dissolved in 10 ml saline, up to the fourth TCA application. […] Clinical evaluation was performed at baseline and on each day after a triamcinolone administration in 25 progressive multiple sclerosis patients. Before the TCA was administered to a patient, 1-2 ml aliquots of CSF were withdrawn. RGMa concentrations were determined before each triamcinolone application by western blot analysis with quantification. Dependent on the disease activity, the patients usually received 4-6 TCA applications."}, "RGMa": {"system": "RGMa", "assay": "RGMa levels in cerebrospinal fluid by Western blot with densitometric quantification", "assay_type": "in vivo, human"}, "[2]": {"system": "progressive multiple sclerosis patients", "assay": "Clinical evaluation (EDSS, maximum walking distance, walking speed) after repeated intrathecal TCA applications", "assay_type": "in vivo, human", "settings": "for clinical benefit / functional recovery: not immediately responding patients", "method": "as §1, with “Subjects. 25 MS patients (age: 50±1.64 [mean±SEM, years] were studied. The average MS duration was 14.02±1.71 [years]. The subjects included 14 women and 11 men. The subjects included 13 secondary progressive [8 women, 5 men] and 12 primary progressive [6 women, 6 men]). […] Design.” for “Design.”, “application. Statistics. ANCOVA with repeated measures design were employed for this exploratory analysis of this pilot trial. Covariates were MS duration, MS types, sex and age as covariates. The post hoc analysis was done with the Tukey's multiple comparisons test against baseline. The statistical analysis was performed with GraphPad Prism 5 Software.” for “application.”"}, "[3]": {"settings": "treated MS patients, numerous TCA studies"}},
  "note": "“Also recorded” adds a separate entry of the source.",
  "data": [
    {"smiles": "CC1(C)O[C@@H]2C[C@H]3[C@@H]4CCC5=CC(=O)C=C[C@]5(C)[C@@]4(F)[C@@H](O)C[C@]3(C)[C@]2(C(=O)CO)O1", "note": "[TCA, triamcinolone acetonide]", "values": [
      {"measurement": "CSF synthesis of free radicals", "setting": "MS patients; patients with a distinct immediate enhancement of upper and lower limb function", "result": "Reduced"},
      {"measurement": "EDSS (Expanded Disability Status Score)", "setting": "MS patients; [3]", "result": "decreased"},
      {"measurement": "walking distance", "setting": "MS patients; [3]", "result": "increased"},
      {"measurement": "walking speed", "setting": "MS patients; [3]", "result": "decreased"},
      {"measurement": "serious side effects", "setting": "[1]", "result": "no serious side effects"},
      {"measurement": "RGMa concentrations in CSF", "setting": "RGMa; not immediately responding patients", "result": "no decrease"},
      {"measurement": "RGMa 40 kDa form level in CSF", "setting": "RGMa; not immediately responding patients, F=0.84, ns, FIG. 7A", "result": "No significant changes"},
      {"measurement": "RGMa 30 kDa form level in CSF", "setting": "RGMa; not immediately responding patients, F=2.98, ns, FIG. 7B", "result": "No significant changes"},
      {"measurement": "RGMa levels in CSF (all investigated fragments)", "setting": "RGMa; responders", "result": "decreased"},
      {"measurement": "RGMa 40 kDa form level in CSF", "setting": "RGMa; responders, F=9.12, p<0.0001, FIG. 5A", "result": "decline"},
      {"measurement": "RGMa 30 kDa form level in CSF", "setting": "RGMa; responders, less pronounced than 40 kDa, F=3.82, p<0.05, FIG. 5B", "result": "decline"},
      {"measurement": "RGMa levels in CSF (all investigated fragments)", "setting": "RGMa; responders, listed as Triamcinolone Acetonide", "result": "reduction"},
      {"measurement": "RGMa levels in CSF (all investigated fragments)", "setting": "RGMa; responders, listed as triamcinolone", "result": "declined"},
      {"measurement": "walking speed", "setting": "[2]; 8 not immediately responding patients, F=0.021, ns, FIG. 4C", "result": "no significant change; also recorded: no improved"},
      {"measurement": "EDSS scores", "setting": "[2]; 8 not immediately responding patients, F=1, ns, FIG. 4A", "result": "no significant change; also recorded: no improved"},
      {"measurement": "maximum walking distances", "setting": "[2]; 8 not immediately responding patients, F=1.52, ns, FIG. 4B", "result": "no significant change; also recorded: no improved"},
      {"measurement": "walking speed", "setting": "[2]; 17 immediate responders (3 wheel chair bound excluded), F=3.42, p<0.01, FIG. 3C", "result": "improved"},
      {"measurement": "walking speed", "setting": "[2]; 17 immediate responders (3 wheel chair bound excluded), F=3.42, p<0.01, FIG. 3C, listed as Triamcinolone Acetonide", "result": "went up"},
      {"measurement": "walking speed", "setting": "[2]; 17 immediate responders (3 wheel chair bound excluded), F=3.42, p<0.01, FIG. 3C, listed as triamcinolone", "result": "ameliorated"},
      {"measurement": "maximum walking distances", "setting": "[2]; 17 immediate responders (3 wheel chair bound excluded), F=3.64, p=0.01, FIG. 3B", "result": "improved"},
      {"measurement": "maximum walking distances", "setting": "[2]; 17 immediate responders (3 wheel chair bound excluded), F=3.64, p=0.01, FIG. 3B, listed as Triamcinolone Acetonide", "result": "increased"},
      {"measurement": "maximum walking distances", "setting": "[2]; 17 immediate responders (3 wheel chair bound excluded), F=3.64, p=0.01, FIG. 3B, listed as triamcinolone", "result": "ameliorated"},
      {"measurement": "EDSS scores", "setting": "[2]; 17 immediate responders, 40 mg TCA intrathecal, repeated, F=8.55, p<0.009, FIG. 3A", "result": "improved"},
      {"measurement": "EDSS scores", "setting": "[2]; 17 immediate responders, 40 mg TCA intrathecal, repeated, F=8.55, p<0.009, FIG. 3A, listed as Triamcinolone Acetonide", "result": "went down"},
      {"measurement": "EDSS scores", "setting": "[2]; 17 immediate responders, 40 mg TCA intrathecal, repeated, F=8.55, p<0.009, FIG. 3A, listed as triamcinolone", "result": "improved"},
      {"measurement": "patients reporting a delayed improvement within three weeks after the TCA applications", "setting": "[2]; among the 8 not immediately responding patients", "result": 6, "unit": "patients"},
      {"measurement": "clinical benefit / functional recovery", "setting": "[2]", "result": "no functional recovery"},
      {"measurement": "clinical benefit / functional recovery", "setting": "[2]; listed as triamcinolone", "result": "no prompt clinical benefit"},
      {"measurement": "patients improved following treatment", "setting": "[2]; of 25 progressive MS patients", "result": 17, "unit": "patients"},
      {"measurement": "patients who did not immediately respond during the observation period", "setting": "[2]; of 25 progressive MS patients", "result": 8, "unit": "patients"}
    ]}
  ]
}
